Measurements as given in patent US7208162B2, “Combination therapy of respiratory diseases using antibodies and anti-inflammatory agents” (priority 2000, dated 2007).

Key:
[1] = cited from earlier work
RSV [2] = conditions: aerosol inhalation; versus untreated patients; cited from earlier work
RSV [3] = experiment: Example 5: lung pathology score (0 to 100) on day 6 after MAb and glucocorticoid therapy; assay type: in vivo, cotton rats
Description: Twenty eight (28) cotton rats (CRs) were infected intranasally with 6.5 logs of RSV (as 0.1 ml of inoculum), leading to dramatic lung pathology 6 days post-infection (PI). On day 3 PI (the peak for viral infection), 7 groups of 4 animals received one of the following: no therapy, or intramuscular (i.m.) MAb (15 mg/kg) (MAb=palivizumab) i.m. triamcinolone (TRI;Steris Laboratories, Phoenix, Ariz.) at 16 mg/kg and MAb; i.p. methylprednisolone (MED; Solu-Medrol® Pharmacia and Upjohn, Kalamazoo, Mich.) 4 mg/kg and MAb; i.p. MED at 8 mg/kg and MAb; i.p. dexamethasone (DEX; Elkins-Sinn, Cherry Hill, N.J.) 0.6 mg/kg and MAb; or i.p. DEX 1.2 mg/kg and MAb (TRI and DEX once daily, MED divided into every 6 hours). All glucocorticoids were repeated on days 4 and 5. The dose, frequency and route of administration of dexamethasone and methylprednisolone were extrapolated from human use recommendations.
On day 6, all groups (including 4 uninfected CRs were sacrificed (in general by carbon dioxide asphyxiation). For pathology, tissues were inflated and formalin fixed and coronal paraffin sections were cut at 4 μm thickness. Lung tissue slides scored on a 0 (normal) to 100 (marked pathology) severity scale, for bronchiolitis, alveolitis, and interstitial pneumonia.
Results are shown graphically in FIG. 7A and summarized as follows in terms of pathology score (0 to 100).

[4] = system: respiratory syncytial virus (RSV/Long); experiment: Example 1: antibody/triamcinolone therapy of RSV-infected cotton rats (virus titer, pulmonary pathology); assay type: in vivo; conditions: treatment i.m. beginning 3 days post-infection; antibody 15 mg/kg, triamcinolone 1-16 mg/kg; lungs days 4 and 6
Description: The following procedure was performed using inbred cotton rats (Sigmodon hispidus). On day 0, young adult cotton rats were divided into 9 groups of 12 animals each (total: 108 animals). Identification of each group in terms of treatment was as follows:
In each case (Groups B–I), approximately 10^6.5 plaque forming units (pfu) of respiratory syncytial virus (RSV/Long) was administered intranasally in a volume of 100 μl.
On day 3, treatment began as described above for each of the groups. The animals were each weighed and treated according to the indicated regimen. All antibody and steroid administration was intramuscular (i.e., systemic) and both antibody and steroid were administered together. Antibody was palivizumab wherein 15 mg/kg was the dose used in each case. All dosages are given as mg per kg of body weight.
On day 4, six animals from each group were sacrificed, their lungs bisected, with half being homogenized for viral quantitation and the other half being inflated with formalin for histological examination. The remaining six animals in each of groups D through I were treated with the dose of triamcinolone indicated above but no additional antibody was given.
On day 5, the remaining six animals in each group were treated again as described for day 4 (again with no additional antibody).
On day 6, the remaining 6 animals from each group were sacrificed and data collected as described for day 4. Thus, their lungs were bisected, with half being homogenized for viral quantitation and the other half being inflated with formalin for histological examination.
Results of these experiments are shown graphically in FIGS. 2(a through e).
This experiment was duplicated on a separate population of 108 cotton rats divided into groups and treated as just described with similar results reported in FIG. 3 (FIG. 3(a) showing virus titer and FIG. 3(b) showing composite pathology score). The conclusions herein are the result of data from both experiments. The results for composite pathology scores are shown in FIG. 1 reflecting the results of both sets of experiments.

[5] = system: respiratory syncytial virus (RSV/Long); experiment: Example 3: different steroids with the same antibody in RSV pneumonia, arithmetic mean pathology scores; assay type: in vivo; conditions: 8 mg/kg/day i.p. days 3-5 plus antibody 15 mg/kg day 3; day 6
Description: The following procedure was performed using inbred cotton rats (Sigmodon hispidus). On day 0, young adult cotton rats were divided into 8 groups of 4 animals each (total: 32 animals). Identification of each group in terms of treatment was as follows:
In each case (Groups B–H), approximately 10^6.5 plaque forming units (pfu) of respiratory syncytial virus (RSV/Long) was administered intranasally in a volume of 100 μl.
On day 3, treatment began as described above for each of the groups. The animals were each weighed and treated according to the indicated regimen. Antibody was palivizumab wherein 15 mg/kg was the dose used in each case. All dosages are given as mg per kg of body weight.
On day 4, animals in groups D through H were treated as described for day 3 but no additional antibody was given.
On day 5, animals in groups D through H were treated as on […] (again with no additional antibody).
On day 6, all animals were sacrificed. Lungs from all of the animals were inflated with formalin for histological examination.

[6] = system: Respiratory Syncytial Virus; conditions: systemically administered; 147 infants; cited from earlier work
[7] = MAb 15 mg/kg i.m. day 3, TRI 16 mg/kg i.m. days 3-5

NC(=O)c1ncn([C@@H]2O[C@H](CO)[C@@H](O)[C@H]2O)n1 [ribavirin]
bioavailability ([1]; given orally): about 45%
time of peak concentrations in plasma ([1]; in vivo, po): 1 to 2 h
level of secondary infection following cessation of treatment (RSV [2]): significantly higher than in untreated patients

palivizumab: anti-RSV IgG monoclonal antibody, commercially palivizumab, sequence described as Medi-493 (U.S. Pat. No. 5,824,307 FIGS. 7 and 8)
pathology (summary of Table 1) (RSV [3]): did not reduce pathology
Alveolitis pathology score (0 to 100) (RSV [3]; [7]): 38
Bronchiolitis pathology score (0 to 100) (RSV [3]; [7]): 75
Interstitial Pneumonia pathology score (0 to 100) (RSV [3]; [7]): 49
lung tissue histology (inflammatory infiltrates) (RSV [3]; palivizumab day 3, methylprednisolone days 3, 4 and 5, hematoxylin and eosin, 64X): Little or no improvement
pulmonary pathology [4]: no significant effect on pulmonary pathology
viral clearance (RSV titer in lungs) [4]: accelerated viral clearance

C[C@H]1C[C@@H]2[C@H]([C@@H](O)C[C@@]3(C)[C@H]2CC[C@]3(O)C(=O)COC(=O)CCC(=O)[O-])[C@@]2(C)C=CC(=O)C=C12.[Na+] [solumedrol]
pulmonary pathology (arithmetic mean pathology scores) compared with triamcinolone [5]: worked almost as well as triamcinolone

C[C@]12C=CC(=O)C=C1CC[C@@H]1[C@@H]2[C@@H](O)C[C@@]2(C)[C@H]1CC[C@]2(O)C(=O)CO [prednisolone]
effectiveness in infant RSV [6]: ineffectiveness

C[C@]12C=CC(=O)C=C1CC[C@H]1[C@@H]3C[C@@H](O)[C@](O)(C(=O)CO)[C@@]3(C)C[C@H](O)[C@@]12F [triamcinolone]
pulmonary pathology [4]: positive effect on pulmonary pathology
viral clearance (RSV titer in lungs) [4]: retarded viral clearance
